In patent publication US5618795A, “Dibekacin derivatives and arbekacin derivatives active against resistant bacteria, and the production thereof” (Zaidan Hojin Biseibutsu Kagaku Kenkyu Kai, priority 1992, dated 1997):
≈ marks a conversion by molar mass, not a printed value. Like-named read-outs stand apart in the source and are kept apart here.

Experiments:
[1] = tested on: clinically isolated strains of MRSA; assay: Antibacterial MIC spectra against 50 clinically isolated strains of MRSA; format: cell-based, methicillin-resistant Staphylococcus aureus; conditions: Staphylococcus aureus; for MIC: range over 50 clinically isolated strains of MRSA, read-out: Antibacterial MIC spectra
Procedure: (§1) Minimum growth inhibitory concentrations (MIC) of each of 2"-amino-2"-deoxyarbekacin (Compound Ia), 2"-amino-5,2"-dideoxyarbekacin (Compound Ib), 2"-amino-2"-deoxydibekacin (Compound IIa) and 2"-amino-5,2"-dideoxydibekacin (Compound IIb) against various bacteria (20 strains) and against clinically isolated strains of MRSA (50 strains) were determined by standard serial dilution method on Muller-Hinton's agar medium (as estimated after cultivating at 27° C. for 18 hours), and the test results obtained are shown in TABLE 3 and TABLE 4, respectively.
Note:- MIC50 or MIC90 represents the concentration of tested
active compound at which 50% or 90% of the total numbers of the bacterial
strains tested were inhibited from their growth. DKB denotes dibekacin,
(§2) Minimum growth inhibitory concentrations (MIC) of each of 2"-amino-5,2"-dideoxy-5-epi-fluoroarbekacin (Compound XVIa) and 2"-amino-5,2"-dideoxy-5-epi-aminoarbekacin (Compound XVIb) against various bacteria (18 strains) and against clinically isolated strains of MRSA (50 strains) were determined by standard serial dilution method on Muller-Hinton's agar medium (as estimated after cultivation at 27° C. for 18 hours), and the test results obtained are shown in TABLE 5 and TABLE 6, respectively.

[2] = tested on: strain of MRSA which exhibits a moderate resistance to arbekacin; assay: Minimum growth inhibitory concentration against MRSA strain moderately resistant to arbekacin; format: cell-based, methicillin-resistant Staphylococcus aureus; conditions: Staphylococcus aureus, read-out: minimum growth inhibitory concentration of arbekacin
[3] = P. J. L. Daniels et al.; cited from earlier work
[4] = Acute toxicity, single intravenous administration to mice; format: in vivo; conditions: mouse, in vivo
From the text: (§3) 50% Lethal dosages (LD50, observations for two weeks) of the new compounds of this invention as estimated upon single intravenous administration to mice (ICR-strain, 4 weeks old, female) are as follows:
(§4) 50% Lethal dosages (LD50, observations for two weeks) of the new compounds of general formula (XVI) according to the seventh aspect of this invention as estimated upon single intravenous administration to mice (ICR-strain, 4 weeks old, female) are as follows: […]

mice = assay: as above; format: in vivo; conditions: mice / mammals
From the text: as §3, §4

Solubility in water = format: physicochemical
S. aureus Smith = assay: MIC by standard serial dilution method on Muller-Hinton's agar; format: cell-based; conditions: Staphylococcus aureus; Table 3; 27° C., 18 hours
Procedure: as §1, §2

Serratia marcescens = assay: as above; format: cell-based; conditions: Table 3, 27° C., 18 hours, read-out: MIC
Procedure: as §1, §2

Proteus vulgaris OX19 = assay: as above; format: cell-based; conditions: OX19, Table 3, 27° C., 18 hours, read-out: MIC
Procedure: as §1, §2

[5] = tested on: Shigella dysenteriae JSI1910; assay: as above; format: cell-based; conditions: JSI1910, 18 h
Procedure: as §1, §2

Bacillus subtilis PCI219 = assay: as above; format: cell-based; conditions: Table 3, 27° C., 18 hours
Procedure: as §1, §2

P. aeruginosa PST1 = assay: as above; format: cell-based; conditions: Pseudomonas aeruginosa, Table 3, 27° C., 18 hours
Procedure: as §1, §2

[6] = tested on: Providencia rettgeri GN311; assay: as above; format: cell-based; conditions: GN311, Table 3, 27° C., 18 hours, read-out: MIC
Procedure: as §1, §2

E. coli JR66/W677 = assay: as above; format: cell-based; conditions: Escherichia coli, JR66/W677, 18 h
Procedure: as §1, §2

E. coli K-12 ML1629 = assay: as above; format: cell-based; conditions: Escherichia coli, K12ML1629; Table 3; 27° C., 18 hours; read-out: MIC
Procedure: as §1, §2

S. epidermidis 109 = assay: as above; format: cell-based; conditions: Staphylococcus epidermidis, 109; Table 3; 27° C., 18 hours; read-out: MIC
Procedure: as §1, §2

Salmonella typhi T-63 = assay: as above; format: cell-based; conditions: Salmonella enterica, Table 3, 27° C., 18 hours
Procedure: as §1, §2

Escherichia coli NIHJ = assay: as above; format: cell-based; conditions: Table 3, 27° C., 18 hours
Procedure: as §1, §2

[7] = tested on: Staphylococcus aureus FDA209P; assay: as above; format: cell-based; conditions: Table 3, 27° C., 18 hours
Procedure: as §1, §2

E. coli K-12 LA290 R55 = assay: as above; format: cell-based; conditions: Escherichia coli, K12LA290R55, 18 h
Procedure: as §1, §2

P. aeruginosa H9 = assay: as above; format: cell-based; conditions: Pseudomonas aeruginosa, H9; Table 3; 27° C., 18 hours; read-out: MIC
Procedure: as §1, §2

[8] = tested on: Klebsiella pneumoniae PCI602; assay: as above; format: cell-based
Procedure: as §1, §2

[9] = tested on: Pseudomonas aeruginosa A3; assay: as above; format: cell-based; conditions: A3, Table 3, 27° C., 18 hours, read-out: MIC
Procedure: as §1, §2

P. aeruginosa TI-13 = assay: as above; format: cell-based; conditions: Pseudomonas aeruginosa, TI13, 18 h
Procedure: as §1, §2

[10] = tested on: gram-positive and gram-negative bacteria; assay: Antibacterial activities against gram-positive and gram-negative bacteria; format: cell-based
Procedure: as §1, §2

B. cereus ATCC10702 = assay: MIC by standard serial dilution method on Muller-Hinton's agar; format: cell-based; conditions: Bacillus cereus, ATCC10702; Table 3; 27° C., 18 hours; read-out: MIC
Procedure: as §1

E. coli K-12 ML1410 = assay: as above; format: cell-based; conditions: Escherichia coli, K12ML1410; Table 3; 27° C., 18 hours
Procedure: as §1

[11] = 50% of the 50 MRSA strains inhibited, 27° C., 18 hours, read-out: MIC50
[12] = 90% of the 50 MRSA strains inhibited, 27° C., 18 hours, read-out: MIC90

Row | SMILES | MIC50 [1, 11] [µg/mL] | MIC90 [1, 12] [µg/mL] | MIC ([1]; 27° C., 18 hours) [µg/mL] | antibacterial activity (in words) [3] | Solubility (Solubility in water) | MIC (S. aureus Smith) [µg/mL] | MIC (Serratia marcescens) [µg/mL] | MIC (Proteus vulgaris OX19) [µg/mL] | MIC [5] [µg/mL] | MIC (Bacillus subtilis PCI219) [µg/mL] | MIC (P. aeruginosa PST1) [µg/mL] | MIC [6] [µg/mL] | MIC (E. coli JR66/W677) [µg/mL] | MIC (E. coli K-12 ML1629) [µg/mL] | MIC (S. epidermidis 109) [µg/mL] | MIC (Salmonella typhi T-63) [µg/mL] | MIC (Escherichia coli NIHJ) [µg/mL] | MIC [7] [µg/mL] | MIC (E. coli K-12 LA290 R55) [µg/mL] | MIC (P. aeruginosa H9) [µg/mL] | further results
1 | NCC[C@H](O)C(=O)N[C@@H]1C[C@H](N)[C@@H](O[C@H]2O[C@H](CN)CC[C@H]2N)[C@H](O)[C@H]1O[C@H]1O[C@H](CO)[C@@H](O)[C@H](N)[C@H]1O [ABK, (S)-1-N-(4-amino2-hydroxybutyryl)dibekacin, reference compound] | 0.39 (≈ 0.706 µM) | 6.25 (≈ 11.3 µM) | 0.2 to 6.25 (≈ 0.362 to 11.3 µM) |  |  |  |  |  |  |  |  |  |  |  |  |  |  |  |  |  | MIC [2]: 6.25 to 12.5 µg/mL (≈ 11.3 to 22.6 µM)
2 | CN[C@@H]1[C@@H](O)[C@@H](O[C@@H]2[C@H](N)[C@H](O[C@H]3OC(CN)=CC[C@H]3N)[C@@H](N)C[C@H]2N)OC[C@]1(C)O [5-epi-amino-5-deoxysisomicin] |  |  |  | good antibacterial activity |  |  |  |  |  |  |  |  |  |  |  |  |  |  |  |  | 
3 | NCC[C@H](O)C(=O)N[C@@H]1C[C@H](N)[C@@H](O[C@H]2O[C@H](CN)CC[C@H]2N)C[C@H]1O[C@H]1O[C@H](CO)[C@@H](O)[C@H](N)[C@H]1N [Compound Ib, 2"-Amino-5,2"-dideoxyarbekacin] | 0.78 (≈ 1.46 µM) |  | 0.2 to 3.13 (≈ 0.373 to 5.84 µM) |  | easily soluble in water | ≤ 0.2 | 6.25 (≈ 11.7 µM) | 0.78 (≈ 1.46 µM) | 1.56 (≈ 2.91 µM) | ≤ 0.2 | 6.25 (≈ 11.7 µM) | 0.78 (≈ 1.46 µM) | 3.13 (≈ 5.84 µM) | 1.56 (≈ 2.91 µM) | 0.39 (≈ 0.728 µM) | 0.78 (≈ 1.46 µM) | 0.39 (≈ 0.728 µM) | ≤ 0.2 | 0.78 (≈ 1.46 µM) | 3.13 (≈ 5.84 µM) | LD50 at 336 h ([4]; iv): 50 to 100 mg/kg; acute toxicity (in words) (mice): higher acute toxicity to mice than that of 2"-amino-2"-deoxyarbekacin; MIC ([8]; PCI602, Table 3, 27° C., 18 hours, read-out: MIC): 0.78 µg/mL (≈ 1.46 µM); MIC [9]: 0.39 µg/mL (≈ 0.728 µM); MIC (P. aeruginosa TI-13): 1.56 µg/mL (≈ 2.91 µM); MIC90 ([1]; MRSA, 18 h): 1.56 µg/mL (≈ 2.91 µM); antibacterial activity (in words) [10]: broad and excellent antibacterial activity; MIC (B. cereus ATCC10702): 0.78 µg/mL (≈ 1.46 µM); MIC (E. coli K-12 ML1410): 1.56 µg/mL (≈ 2.91 µM)
4 | NC[C@@H]1CC[C@@H](N)[C@@H](O[C@H]2C[C@@H](O[C@H]3O[C@H](CO)[C@@H](O)[C@H](N)[C@H]3N)[C@H](N)C[C@@H]2N)O1 [Compound IIb, 2"-Amino-5,2"-dideoxydibekacin] |  | 25 (≈ 57.5 µM) | 0.78 to 25 (≈ 1.8 to 57.5 µM) |  | easily soluble in water | ≤ 0.2 | 25 (≈ 57.5 µM) | 1.56 (≈ 3.59 µM) | 6.25 (≈ 14.4 µM) | ≤ 0.2 | 100 (≈ 230 µM) | 1.56 (≈ 3.59 µM) | 6.25 (≈ 14.4 µM) | 6.25 (≈ 14.4 µM) | 0.78 (≈ 1.8 µM) | 3.13 (≈ 7.2 µM) | 1.56 (≈ 3.59 µM) | 0.39 (≈ 0.898 µM) | 3.13 (≈ 7.2 µM) | 12.5 (≈ 28.8 µM) | LD50 at 336 h ([4]; single intravenous administration, mice (ICR-strain, 4 weeks old, female), observations for two weeks, read-out: LD50): 50 to 100 mg/kg; MIC ([8]; PCI602, 18 h): 3.13 µg/mL (≈ 7.2 µM); MIC [9]: 0.78 µg/mL (≈ 1.8 µM); MIC (P. aeruginosa TI-13): 3.13 µg/mL (≈ 7.2 µM); MIC50 ([1]; MRSA, 18 h): 3.13 µg/mL (≈ 7.2 µM); MIC (B. cereus ATCC10702): 1.56 µg/mL (≈ 3.59 µM); MIC (E. coli K-12 ML1410): 3.13 µg/mL (≈ 7.2 µM)
5 | CN[C@@H]1[C@@H](O)[C@@H](O[C@@H]2[C@H](F)[C@H](O[C@H]3OC(CN)=CC[C@H]3N)[C@@H](N)C[C@H]2N)OC[C@]1(C)O [5-epi-fluoro-5-deoxysisomicin] |  |  |  | good antibacterial activity |  |  |  |  |  |  |  |  |  |  |  |  |  |  |  |  | 
